Laboratory results published in ChEMBL document CHEMBL5634173, “Identification of a novel histone H2A mono-ubiquitination-inhibiting cell-active small molecule” (Bioorg Med Chem Lett, 2024).
pIC50: −log10 of the molar value. Activity calls are given as the source filed them. The rule behind the calls is not given here.

What was measured:
[1] = test system: U2OS; assay: Antiproliferative activity against human U2OS cells assessed as reduction in cell viability at 50 uM incubated for 72 hrs; type: functional, cell-based
[2] = test system: U2OS; assay: Antiproliferative activity against human U2OS cells assessed as reduction in cell viability at 30 uM incubated for 72 hrs; type: functional, cell-based
[3] = test system: U2OS; assay: Antiproliferative activity against human U2OS cells assessed as reduction in cell viability incubated for 72 hrs; type: functional, cell-based
[4] = test system: U2OS; assay: Inhibition of histone H2A ubiquitination at K119 residue in human U2OS cells assessed as decrease in H2AK119ub1 level incubated for 1 hr by Western blotting analysis; type: cell-based; details: dose 24-96 µM
[5] = test system: U2OS; assay: Antiproliferative activity against human U2OS cells assessed as reduction in cell viability at 30 uM incubated for 72 hrs relative to control; type: functional

How did the Activity [1] turn out when CCc1c(-c2cccc3[nH]ccc23)[nH]c(C(=O)O)c1-c1ccccc1Cl was run?
The Activity was “inactive”.

COc1cccc(C=C2C(=O)c3ccccc3C2=O)c1 was tested. Which Activity [2] did it give?
Its Activity is “inactive”.

What does the source list for O=C1C(=Cc2ccc([N+](=O)[O-])cc2)C(=O)c2ccccc21?
pIC50 [3]: 4.47; Activity [2]: Active

Which Activity [2] does the source give for Cc1cccc(C=C2C(=O)c3ccccc3C2=O)c1 here?
The Activity was “inactive”.

With COc1ccccc1C=C1C(=O)c2ccccc2C1=O as the molecule, how does the Activity [2] read?
The Activity was “inactive”.

Which results are given for O=C1C(=Cc2c([N+](=O)[O-])cccc2[N+](=O)[O-])C(=O)c2ccccc21?
inhibition [4]: Dose-Dependent Effect; pIC50 [3]: 5.23; Activity [5]: 100%

O=C1C(=Cc2cccc(F)c2)C(=O)c2ccccc21 was tested. Which Activity [2] did it give?
The Activity was “inactive”.

With O=C1C(=Cc2ccc([N+](=O)[O-])cc2[N+](=O)[O-])C(=O)c2ccccc21 as the molecule, how does the pIC50 [3] read?
The pIC50 was 4.62.

Cc1ccc(C=C2C(=O)c3ccccc3C2=O)cc1 was tested. Which Activity [2] did it give?
Its Activity is “inactive”.

How did the pIC50 [3] turn out when O=C1C(=Cc2ccccc2[N+](=O)[O-])C(=O)c2ccccc21 was run?
Its pIC50 is 4.40.

What about the Activity [2] of the same molecule?
Its Activity is “Active”.

How did the Activity [2] turn out when Cc1ccccc1C=C1C(=O)c2ccccc2C1=O was run?
The Activity was “inactive”.

With N#Cc1cccc(C=C2C(=O)c3ccccc3C2=O)c1 as the molecule, how does the pIC50 [3] read?
The pIC50 was 4.49.

Which Activity [2] does the source give for Cc1cccc(C)c1C=C1C(=O)c2ccccc2C1=O here?
The Activity was “inactive”.

What does the source list for O=C1C(=Cc2cccc([N+](=O)[O-])c2)C(=O)c2ccccc21?
pIC50 [3]: 4.62; Activity [2]: Active

For COc1ccc(C=C2C(=O)c3ccccc3C2=O)cc1, which Activity [2] is on record?
The Activity was “inactive”.

For O=C1C(=Cc2ccccc2)C(=O)c2ccccc21, which Activity [2] is on record?
The Activity was “inactive”.

With O=C1C(=Cc2cccnc2)C(=O)c2ccccc21 as the molecule, how does the Activity [3] read?
Its Activity is “Dose-Dependent Effect”.

And the pIC50 [3]?
The pIC50 was 4.34.

And the Activity [1]?
The Activity was “Active”.
